From ChEMBL document CHEMBL1201862, “PubChem BioAssay data set” (2004)
Active and inactive are the calls of the source.

Legend:
[1] = molecular target: T1, Scavenger receptor class B member 1 (Mus musculus, UniProt Q61009); assay: mouse SR-BI DiI-HDL transfer blockers – ldlA[mSR-BI] CHO cells, fluorescence plate reader, dry powder, set 9, dose response (AID 623880); assay type: functional, cell-based
T1 sequence (Q61009 whole entry): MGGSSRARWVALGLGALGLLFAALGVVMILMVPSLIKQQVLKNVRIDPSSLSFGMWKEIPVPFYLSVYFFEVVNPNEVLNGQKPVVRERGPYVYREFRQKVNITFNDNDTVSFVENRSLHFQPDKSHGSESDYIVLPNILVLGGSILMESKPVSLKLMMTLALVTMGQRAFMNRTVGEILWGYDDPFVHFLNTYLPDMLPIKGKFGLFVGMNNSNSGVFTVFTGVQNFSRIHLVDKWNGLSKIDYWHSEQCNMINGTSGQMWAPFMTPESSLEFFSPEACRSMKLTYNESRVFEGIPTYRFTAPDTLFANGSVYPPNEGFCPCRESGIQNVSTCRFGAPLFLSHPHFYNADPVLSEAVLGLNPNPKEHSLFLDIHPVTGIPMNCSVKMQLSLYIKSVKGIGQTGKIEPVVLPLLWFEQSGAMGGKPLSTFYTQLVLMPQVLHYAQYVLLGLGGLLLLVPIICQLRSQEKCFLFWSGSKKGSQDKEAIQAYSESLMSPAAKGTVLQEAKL

[2] = molecular target: T1, Scavenger receptor class B member 1; assay: blockers of DiI-HDL lipid transfer via SR-BI – cell-based, ldlA[mSR-BI] CHO, DiI fluorescence, dry powder, set 10, dose response (AID 624029); assay type: functional
HEK293 = assay: viability loss in HEK293T cells – cell-based, ATP luminescence, cherry-pick samples, cytotoxicity control, dose response (AID 687005); assay type: functional; conditions: Homo sapiens;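 further: cells exposed to compound for 48 hours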
[3] = HEK293 Cytotoxicity Assay Measured in Cell-Based System Using Plate Reader - 7071-01_Inhibitor_Dose_CherryPick_Activity_Set2.; assay type: functional
[4] = general mammalian cell viability loss – inhibitor set, cherry-pick, set 2, cytotoxicity control for miR-122 modulator project, dose response (AID 720697); assay type: functional, cell-based
[5] = general mammalian cell viability loss – activator set, cherry-pick, cytotoxicity control for miR-122 modulator project, dose response (AID 720690); assay type: functional, cell-based;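 further: HEK293T human cells scored for general mammalian cytotoxicity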
[6] = activation of miR-122 Renilla sensor silencing – cell-based, Huh7 psiCHECK-miR122, Renilla luciferase, cherry-picked, dose response (AID 651956); assay type: functional;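 further: huh7 hepatoma cells stably carrying a psiCHECK-2 miR-122 sensor plasmid; renilla luciferase signal reporting endogenous miR-122 activity after 48 h compound exposure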
[7] = molecular target: Fructose-bisphosphate aldolase (Mycobacterium tuberculosis, UniProt P9WQA3); assay: Fluorescence-based biochemical high throughput dose response assay for inhibitors of the fructose-bisphosphate aldolase (FBA) of M. tuberculosis.; assay type: functional
Protein Wnt-3a = Protein Wnt-3a (Mus musculus, UniProt P27467); assay: SAR analysis of small molecule antagonists of Gli-SUFU in a Wnt3a luminescent reporter assay.; assay type: functional
[8] = reduction of Shn3 3'UTR-driven luciferase in osteoblasts – cell-based, Clone20 osteoblasts, firefly luciferase, cherry-picked, dose response (AID 624132); assay type: functional;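 further: firefly luciferase luminescence from reporter carrying the Shn3 3'UTR in osteoblasts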
[9] = non-specific 3'UTR reporter inhibition in Clone20-Shn3RL – cell-based, Renilla luciferase, cherry-picked, counter-screen for Shn3 inhibitor project, dose response (AID 624133); assay type: functional
[10] = EF1alpha-driven Renilla reporter with control 3'UTR suppression – Clone20-Shn3RL cells, dual-Glo, cherry-pick, set 2, counter-screen for Shn3 3'UTR targeting project, dose response (AID 720724); assay type: functional, cell-based; conditions: Dual-Go Shn3RL
[11] = molecular target: T2, Low molecular weight phosphotyrosine protein phosphatase (Homo sapiens, UniProt P24666); assay type: functional; conditions: read-out: IC50_Mean
T2 sequence (P24666 whole entry): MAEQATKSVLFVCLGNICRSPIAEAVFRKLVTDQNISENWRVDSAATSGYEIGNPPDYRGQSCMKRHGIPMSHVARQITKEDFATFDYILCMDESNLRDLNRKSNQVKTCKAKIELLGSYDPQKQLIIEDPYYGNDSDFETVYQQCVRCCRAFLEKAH

[12] = Shn3 3'UTR reporter signal decrease – cell-based, Clone20 osteoblasts, firefly luciferase, cherry-pick, set 2, Schnurri-3 inhibitor project, dose response (AID 720490); assay type: functional;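 further: actives lower the luminescence signal as inhibitors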
[13] = molecular target: T2, Low molecular weight phosphotyrosine protein phosphatase; assay type: functional; conditions: read-out: IC50_Mean; remark: listed apart in the source
[14] = loss of viability in HepG2 cells – cell-based, CellTiter-Glo, cherry-picked, cytotoxicity control for Shn3 inhibitor project, dose response (AID 624134); assay type: functional

Chain of Protein Wnt-3a (P27467 whole entry): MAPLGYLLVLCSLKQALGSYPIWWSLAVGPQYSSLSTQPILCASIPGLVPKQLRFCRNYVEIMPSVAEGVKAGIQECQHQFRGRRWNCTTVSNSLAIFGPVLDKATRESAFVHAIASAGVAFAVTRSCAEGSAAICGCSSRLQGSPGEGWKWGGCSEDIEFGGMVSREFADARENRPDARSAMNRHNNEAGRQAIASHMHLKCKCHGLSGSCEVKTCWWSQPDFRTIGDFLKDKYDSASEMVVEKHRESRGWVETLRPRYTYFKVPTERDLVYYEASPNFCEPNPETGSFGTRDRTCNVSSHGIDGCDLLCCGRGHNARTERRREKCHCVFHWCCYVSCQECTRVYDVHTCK
Chain of Fructose-bisphosphate aldolase (P9WQA3 whole entry): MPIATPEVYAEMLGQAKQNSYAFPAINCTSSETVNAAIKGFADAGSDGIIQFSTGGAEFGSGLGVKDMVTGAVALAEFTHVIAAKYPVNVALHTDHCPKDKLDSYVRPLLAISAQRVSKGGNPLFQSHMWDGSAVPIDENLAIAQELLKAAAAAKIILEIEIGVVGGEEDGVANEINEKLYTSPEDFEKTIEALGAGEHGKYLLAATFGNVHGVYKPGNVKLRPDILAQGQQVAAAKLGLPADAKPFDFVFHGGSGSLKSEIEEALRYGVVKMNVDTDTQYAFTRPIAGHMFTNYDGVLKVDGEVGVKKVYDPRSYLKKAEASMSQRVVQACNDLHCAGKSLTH

SMILES: COCC(=O)N1CCc2cc(-c3csc(NC(=O)c4cc(OC)cc(OC)c4)n3)ccc21
- AC50 [1]: 0.00684 µM (active)
- AC50 [2]: 0.00538 µM (active)

SMILES: Cc1ccc(S(=O)(=O)N2CC[C@@H]3[C@H](CO)Nc4ccc(-c5ccccc5F)cc4[C@@H]32)cc1
- AC50 (HEK293): 44.6 µM (active)
- AC50 [3]: 44.6 µM (active)

SMILES: CN1C(=O)c2cc(NC(=O)c3ccc(C(F)(F)F)cc3)ccc2OC[C@H]2O[C@H](CC(=O)NCc3ccc4c(c3)OCO4)CC[C@H]21
- AC50 [4]: 0.571 µM (active)
- AC50 [5]: 28.4 µM (active)
- AC50 [6]: 12.3 µM (active)

SMILES: Cc1ccc(-c2cnc(-c3ccccc3C(=O)O)o2)cc1
- IC50 [7]: 0.919 µM (active)

SMILES: N#Cc1ccc(C(=O)Nc2cc(N3CCCCC3)ncn2)cc1
- IC50 (Protein Wnt-3a): > 21.8 µM (inactive)

SMILES: CCN(CC)CCNC(=O)c1sc2nc(-c3ccccc3)cn2c1C
- AC50 (cells): 57 µM (active)

SMILES: COCCNc1nc(NCc2ccc(C(C)C)cc2)c2sccc2n1
- AC50 [8]: 3.95 µM (active)
- AC50 [9]: 17.5 µM (active)
- AC50 [10]: 33.2 µM (active)
- IC50 [11]: 13 µM (active)
- AC50 [12]: 3 µM (active)
- IC50 [13]: 24.5 µM (inactive)
- AC50 [14]: 47.4 µM (active)
